# Assay results as given in patent US4008329A, “Substituted cyclohexanes, pharmaceutical compositions containing them and method of treatment involving their use” (priority 1974, dated 1977).
# Where two headings read alike, the source gives them in different places.
# Legend:
# [1] = test system: hypotension (H), tachycardia (T), and positive inotropism (I^+) induced by isoprenaline; test: Cardiovascular parameters: modification of isoprenaline-induced hypotension, tachycardia and positive inotropism; type: in vivo, chloralised dogs; conditions: Canis lupus familiaris
# Description: Experiments were carried out on chloralised dogs: these consisted of measuring, as a percentage relative to the […] of reference animals, the modifications caused by the products of the invention, administered in a proportion of 5mg/kg by intravenous route, on hypotension (H), tachycardia (T), and positive inotropism (I^+) induced by isoprenaline previously administered in a proportion of 0.5μg/kg by intravenous route.
# mice = test: Supramaximal electrical shock test (corneal electrodes); type: in vivo; conditions: Mus musculus, po, P.O., dose which protects 50% of the animals from tonic tension, read-out: ED 50 ELECTROSHOCK
# [2] = test system: depletion of serotonin (5HT) induced by H75/12; test: Test using H75/12: inhibition of serotonin depletion; type: in vivo; conditions: Mus musculus, ip, 30 min before H75/12, mice, read-out: Percentage of inhibition of depletion on 5 HT; for inhibition at 30 mg/kg: 30 mg/kg I.P.; for inhibition at 40 mg/kg: 40 mg/kg I.P.; for inhibition at 20 mg/kg: 20 mg/kg I.P.; for inhibition at 10 mg/kg: 10 mg/kg I.P.
# Description: In the experiments carried out, the H 75/12 was administered on two occasions with an interval of two hours between them, in a proportion of 100mg/kg by intraperitoneal method.
# In Table I hereafter, the first figure represents the first dose in mg/kg by intraperitoneal method, of the product according to the invention, administered thirty minutes before the injection of H75/12, and the second figure represents the percentage of inhibition of the depletion of serotonin in relation to a reference batch which has received only H75/12. The compounds signified by Compound Nos. 1-14 in Table 1 are indicated hereafter in Table II.
# [3] = LD50 oral, acute toxicity; conditions: mouse, in vivo; oral administration; mice
# [4] = 5 mg/kg intravenous, isoprenaline 0.5 μg/kg intravenous, chloralised dogs, read-out: Cardiovascular parameters, H (hypotension)
# [5] = 5 mg/kg intravenous, isoprenaline 0.5 μg/kg intravenous, chloralised dogs, read-out: Cardiovascular parameters, I^+ (positive inotropism)
# [6] = 5 mg/kg intravenous, isoprenaline 0.5 μg/kg intravenous, chloralised dogs, read-out: Cardiovascular parameters, T (tachycardia)
smiles,measurement,setting,value
CC(C)CCNC1CCCC(Oc2cccc(C(F)(F)F)c2)C1O (stereo not shown) [compound 7],change in vivo at 5 mg/kg,[1]; [4],-50%
same,change in vivo at 5 mg/kg,[1]; [5],-38%
same,change in vivo at 5 mg/kg,[1]; [6],-50%
same,ED50,mice,30 mg/kg
same,inhibition at 30 mg/kg,[2],93%
CC(C)NC1CCCC(Oc2ccccc2)C1O (stereo not shown) [compound 5],change in vivo at 5 mg/kg,[1]; [4],0%
same,change in vivo at 5 mg/kg,[1]; [5],25%
same,change in vivo at 5 mg/kg,[1]; [6],-39%
same,inhibition at 40 mg/kg,[2],26%
NC1CCCC(Oc2ccc(Cl)cc2)C1O (stereo not shown) [compound 13],change in vivo at 5 mg/kg,[1]; [4],0%
same,change in vivo at 5 mg/kg,[1]; [5],0%
same,change in vivo at 5 mg/kg,[1]; [6],0%
same,inhibition at 40 mg/kg,[2],62%
CN(C)C1CCCC(Oc2ccc(F)cc2)C1O (stereo not shown) [compound 9],change in vivo at 5 mg/kg,[1]; [4],30%
same,change in vivo at 5 mg/kg,[1]; [5],25%
same,change in vivo at 5 mg/kg,[1]; [6],9%
same,ED50,mice,250 mg/kg
same,inhibition at 20 mg/kg,[2],18%
"CC(C)NC1CCCC(Oc2cccc(Cl)c2)C1O (stereo not shown) [Compound No. 1, 2-hydroxy-3-(3'-chloro-phenoxy)-N-isopropyl-cyclohexylamine]",change in vivo at 5 mg/kg,[1]; [4],0%
same,change in vivo at 5 mg/kg,[1]; [5],0%
same,change in vivo at 5 mg/kg,[1]; [6],0%
same,LD50,[3],588 mg/kg
same,ED50,mice,100 mg/kg
same,inhibition at 40 mg/kg,[2],99%
CCCCNC1CCCC(Oc2cccc(Cl)c2)C1O (stereo not shown) [compound 10],change in vivo at 5 mg/kg,[1]; [4],0%
same,change in vivo at 5 mg/kg,[1]; [5],0%
same,change in vivo at 5 mg/kg,[1]; [6],0%
same,ED50,mice,80 mg/kg
same,inhibition at 30 mg/kg,[2],92%
CC(Cc1ccccc1)NC1CCCC(Oc2ccccc2)C1O (stereo not shown) [compound 11],change in vivo at 5 mg/kg,[1]; [4],0%
same,change in vivo at 5 mg/kg,[1]; [5],-10%
same,change in vivo at 5 mg/kg,[1]; [6],-60%
same,inhibition at 40 mg/kg,[2],118%
CC(C)NC1CCCC(Oc2ccc(F)cc2)C1O (stereo not shown) [compound 8],change in vivo at 5 mg/kg,[1]; [4],0%
same,change in vivo at 5 mg/kg,[1]; [5],-27%
same,change in vivo at 5 mg/kg,[1]; [6],-10%
same,ED50,mice,200 mg/kg
same,inhibition at 40 mg/kg,[2],59%
CC(C)NC1CCCC(Oc2cccc(C(F)(F)F)c2)C1O (stereo not shown) [compound 6],change in vivo at 5 mg/kg,[1]; [4],-18%
same,change in vivo at 5 mg/kg,[1]; [5],0%
same,change in vivo at 5 mg/kg,[1]; [6],-20%
same,ED50,mice,< 100 mg/kg
same,inhibition at 40 mg/kg,[2],74%
CC(C)CCNC1CCCC(Oc2ccc(Cl)cc2)C1O (stereo not shown) [compound 4],change in vivo at 5 mg/kg,[1]; [4],0%
same,change in vivo at 5 mg/kg,[1]; [5],0%
same,change in vivo at 5 mg/kg,[1]; [6],0%
same,ED50,mice,25 mg/kg
same,inhibition at 10 mg/kg,[2],59%
CC(Cc1ccccc1)NC1CCCC(Oc2ccc(F)cc2)C1O (stereo not shown) [compound 12],change in vivo at 5 mg/kg,[1]; [4],35%
same,change in vivo at 5 mg/kg,[1]; [5],0%
same,change in vivo at 5 mg/kg,[1]; [6],-35%
same,ED50,mice,< 50 mg/kg
same,inhibition at 20 mg/kg,[2],120%
CC(C)CNC1CCCC(Oc2ccc(Cl)cc2)C1O (stereo not shown) [compound 3],change in vivo at 5 mg/kg,[1]; [4],0%
same,change in vivo at 5 mg/kg,[1]; [5],0%
same,change in vivo at 5 mg/kg,[1]; [6],0%
same,ED50,mice,100 mg/kg
same,inhibition at 10 mg/kg,[2],30%
"CC(C)NCC(O)COc1cccc2ccccc12 (stereo not shown) [PROPRANOLOL, propranolol, reference compound]",change in vivo at 5 mg/kg,"[1]; iv, read-out: Cardiovascular parameters, H (hypotension)",-100%
same,change in vivo at 5 mg/kg,"[1]; iv, read-out: Cardiovascular parameters, I^+ (positive inotropism)",-98%
same,change in vivo at 5 mg/kg,"[1]; iv, read-out: Cardiovascular parameters, T (tachycardia)",-92%
CC(C)NC1CCCC(Oc2ccc(Cl)cc2)C1O (stereo not shown) [compound 2],change in vivo at 5 mg/kg,[1]; [4],30%
same,change in vivo at 5 mg/kg,[1]; [5],-15%
same,change in vivo at 5 mg/kg,[1]; [6],-20%
same,ED50,mice,300 mg/kg
same,inhibition at 40 mg/kg,[2],42%
CN(C)C1CCCC(Oc2ccc(Cl)cc2)C1O (stereo not shown) [compound 14],change in vivo at 5 mg/kg,[1]; [4],0%
same,change in vivo at 5 mg/kg,[1]; [5],0%
same,change in vivo at 5 mg/kg,[1]; [6],0%
same,inhibition at 40 mg/kg,[2],38%
